Assay results from patent US20150011466A1, “APJ Receptor Compounds” (priority 2012, published 2015).
Like-named read-outs stand apart in the source and are kept apart here. Where a SMILES comes first, the peptide text is derived from it. Where no end group is shown, it is not given here. [ ]: non-standard residue; d: D form. The star is where a group is joined. Palmitoyl = CCCCCCCCCCCCCCCC(=O)*; Aib = CC(C)(N)C(=O)O

Key:
[1] = target: T1, APJ receptor (Homo sapiens, UniProt P35414); test: HTRF cAMP assay, inhibition of NKH477 stimulated cAMP in Human TRex cells expressing APJ upon doxycycline induction (APJ-hTREX); type: cell-based; details: for Ranking: class combining EC50 and % histamine; for percent intrinsic activity at 0.3 µM: read-out: % IA (@ 300 nM)
T1 construct: expressed in transfected cells; host or cells: Human TRex cells (doxycycline-inducible)
T1 sequence (P35414 1-380): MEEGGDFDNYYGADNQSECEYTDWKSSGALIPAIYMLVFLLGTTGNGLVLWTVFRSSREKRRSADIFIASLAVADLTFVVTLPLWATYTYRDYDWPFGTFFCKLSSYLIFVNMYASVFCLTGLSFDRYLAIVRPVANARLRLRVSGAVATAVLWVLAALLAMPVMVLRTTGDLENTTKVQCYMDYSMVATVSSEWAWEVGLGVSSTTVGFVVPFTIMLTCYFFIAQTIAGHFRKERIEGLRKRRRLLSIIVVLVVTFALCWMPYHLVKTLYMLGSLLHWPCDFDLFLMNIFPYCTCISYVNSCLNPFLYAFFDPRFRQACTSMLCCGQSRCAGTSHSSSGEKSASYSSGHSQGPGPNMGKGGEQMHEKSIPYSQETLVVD
From the text: HTRF (homogeneous time resolved fluorescence) is a technology developed by Cisbio Bioassays based on TR-FRET (time-resolved fluorescence resonance energy transfer). Cisbio Bioassays has developed a wide selection of HTRF-based assays compatible with whole cells, thereby enabling functional assays to run under more physiological conditions. The IP-One assays are competitive immunoassays using cryptate-labeled anti-IP1 monoclonal antibody and d2-labeled IP1. IP1 is a relatively stable downstream metabolite of IP3, and accumulates in cells following Gq receptor activation.
cAMP kits based on a competitive immunoassay using cryptate-labeled anti-cAMP antibody and d2-labeled cAMP were used to assay the effects of APJ compounds of the present invention. […] Cells are treated with […] doxycycline and seeded in all white 96 well plates @ 40 k/well overnight.

[2] = Histimine (% vs. 48/40)
[3] = inhibition of NKH477 stimulated cAMP, APJ-hTREX cells, read-out: APJ-hTREX EC50

| percent intrinsic activity at 0.3 µM [1] [%] | Histimine (% vs. 48/40) [2] [%] | Compound | further results |
| --- | --- | --- | --- |
| 65 | 118 | CCCCCCCCCCCCCCCC(=O)N[C@H](C(=O)N[C@H](C(=O)N[C@@H](Cc1ccccc1)C(=O)N[C@@H](CCCNC(=N)N)C(=O)N[C@@H](CO)C(=O)N[C@@H](CO)C(=O)N[C@@H](CCC(=O)O)C(=O)N[C@H](CCCCN)C(=O)N[C@@H](CCCNC(=N)N)C(=O)N[C@@H](CCCNC(=N)N)C(=O)N[C@@H](CO)C(=O)N[C@@H](C)C(=O)N[C@@H](Cc1ccccc1)C(=O)N[C@H](C(=O)N[C@@H](Cc1ccccc1)C(=O)N[C@H](C(N)=O)[C@@H](C)CC)[C@@H](C)CC)C(C)C)[C@@H](C)O [Compound 4] (Palmitoyl-TVFRSSE[dK]RRSAFIFI-NH2) |  |
| 76 | 70 | CCCCCCCCCCCCCCCC(=O)N[C@H](C(=O)N[C@H](C(=O)N[C@@H](Cc1ccccc1)C(=O)N[C@@H](CCCNC(=N)N)C(=O)N[C@@H](CO)C(=O)N[C@@H](CO)C(=O)N[C@@H](CCC(=O)O)C(=O)N[C@H](CCCCN)C(=O)N[C@@H](CCCNC(=N)N)C(=O)N[C@@H](CCCNC(=N)N)C(=O)N[C@@H](CO)C(=O)N[C@@H](C)C(=O)N[C@@H](CC(=O)O)C(=O)N[C@H](C(=O)N[C@@H](Cc1ccccc1)C(=O)N[C@@H](Cc1ccccc1)C(N)=O)[C@@H](C)CC)C(C)C)[C@@H](C)O [Compound 6] (Palmitoyl-TVFRSSE[dK]RRSADIFF-NH2; C-terminus assumed) | Ranking [1]: *** (EC50<100 nM and % histamine>35%); EC50 [1, 3]: 49.2 nM |
| 74 | 20 | CCCCCCCCCCCCCCCC(=O)N[C@H](C(=O)N[C@H](C(=O)N[C@@H](Cc1ccccc1)C(=O)N[C@@H](CCCNC(=N)N)C(=O)N[C@@H](CO)C(=O)N[C@@H](CO)C(=O)N[C@@H](CCC(=O)O)C(=O)N[C@H](CCCCN)C(=O)N[C@@H](CCCNC(=N)N)C(=O)N[C@@H](Cc1c[nH]cn1)C(=O)N[C@@H](CO)C(=O)N[C@@H](C)C(=O)N[C@@H](CC(=O)O)C(=O)N[C@H](C(=O)N[C@@H](Cc1ccccc1)C(=O)N[C@H](C(N)=O)[C@@H](C)CC)[C@@H](C)CC)C(C)C)[C@@H](C)O [Compound 14] (Palmitoyl-TVFRSSE[dK]RHSADIFI-NH2; C-terminus assumed) | Ranking [1]: **** (EC50 101-500 nM and % histamine<35%); EC50 [1, 3]: 253 nM |
| 77 | 103 | CCCCCCCCCCCCCCCC(=O)N[C@H](C(=O)N[C@H](C(=O)N[C@@H](Cc1ccccc1)C(=O)N[C@@H](CCCNC(=N)N)C(=O)N[C@@H](CO)C(=O)N[C@@H](CO)C(=O)N[C@@H](CCC(=O)O)C(=O)N[C@H](CCCCN)C(=O)N[C@@H](CCCNC(=N)N)C(=O)N[C@@H](CCCNC(=N)N)C(=O)N[C@@H](CO)C(=O)N[C@@H](Cc1c[nH]cn1)C(=O)N[C@@H](CC(=O)O)C(=O)N[C@H](C(=O)N[C@@H](Cc1ccccc1)C(=O)N[C@H](C(N)=O)[C@@H](C)CC)[C@@H](C)CC)C(C)C)[C@@H](C)O [Compound 15] (Palmitoyl-TVFRSSE[dK]RRSHDIFI-NH2) |  |
| 70 |  | CCCCCCCCCCCCCCCC(=O)N[C@H](C(=O)N[C@H](C(=O)N[C@@H](Cc1ccccc1)C(=O)N[C@@H](CCCNC(=N)N)C(=O)N1CCC[C@H]1C(=O)N[C@@H](CO)C(=O)N[C@@H](CCC(=O)O)C(=O)N[C@H](CCCCN)C(=O)N[C@@H](CCCNC(=N)N)C(=O)N[C@@H](CCCNC(=N)N)C(=O)N[C@@H](CO)C(=O)N[C@@H](C)C(=O)N[C@@H](CC(=O)O)C(=O)N[C@H](C(=O)N[C@@H](Cc1ccccc1)C(=O)N[C@H](C(N)=O)[C@@H](C)CC)[C@@H](C)CC)C(C)C)[C@@H](C)O [Compound 45] (Palmitoyl-TVFRPSE[dK]RRSADIFI-NH2) |  |
| 77 |  | CCCCCCCCCCCCCCCC(=O)N[C@H](C(=O)N[C@H](C(=O)N[C@@H](Cc1ccccc1)C(=O)N[C@@H](CCCNC(=N)N)C(=O)N[C@@H](CO)C(=O)N1CCC[C@H]1C(=O)N[C@@H](CCC(=O)O)C(=O)N[C@H](CCCCN)C(=O)N[C@@H](CCCNC(=N)N)C(=O)N[C@@H](CCCNC(=N)N)C(=O)N[C@@H](CO)C(=O)N[C@@H](C)C(=O)N[C@@H](CC(=O)O)C(=O)N[C@H](C(=O)N[C@@H](Cc1ccccc1)C(=O)N[C@H](C(N)=O)[C@@H](C)CC)[C@@H](C)CC)C(C)C)[C@@H](C)O [Compound 46] (Palmitoyl-TVFRSPE[dK]RRSADIFI-NH2) |  |
| 66 |  | CCCCCCCCCCCCCCCC(=O)N[C@H](C(=O)N[C@H](C(=O)N[C@@H](Cc1ccccc1)C(=O)N[C@@H](CCCNC(=N)N)C(=O)N[C@@H](CO)C(=O)NC(C)(C)C(=O)N[C@@H](CCC(=O)O)C(=O)N[C@H](CCCCN)C(=O)N[C@@H](CCCNC(=N)N)C(=O)N[C@@H](CCCNC(=N)N)C(=O)N[C@@H](CO)C(=O)N[C@@H](C)C(=O)N[C@@H](CC(=O)O)C(=O)N[C@H](C(=O)N[C@@H](Cc1ccccc1)C(=O)N[C@H](C(N)=O)[C@@H](C)CC)[C@@H](C)CC)C(C)C)[C@@H](C)O [Compound 59] (Palmitoyl-TVFRS[Aib]E[dK]RRSADIFI-NH2) |  |
| 67 |  | CCCCCCCCCCCCCCCC(=O)N[C@H](C(=O)N[C@H](C(=O)N[C@@H](Cc1ccccc1)C(=O)N[C@@H](CCCNC(=N)N)C(=O)N[C@@H](CO)C(=O)NCC(=O)N[C@@H](CCC(=O)O)C(=O)N[C@H](CCCCN)C(=O)N[C@@H](CCCNC(=N)N)C(=O)N[C@@H](CCCNC(=N)N)C(=O)N[C@@H](CO)C(=O)N[C@@H](C)C(=O)N[C@@H](CC(=O)O)C(=O)N[C@H](C(=O)N[C@@H](Cc1ccccc1)C(=O)N[C@H](C(N)=O)[C@@H](C)CC)[C@@H](C)CC)C(C)C)[C@@H](C)O [Compound 73] (Palmitoyl-TVFRSGE[dK]RRSADIFI-NH2) |  |
| 61 |  | CCCCCCCCCCCCCCCC(=O)N[C@H](C(=O)N[C@H](C(=O)N[C@@H](Cc1ccccc1)C(=O)N[C@@H](CCCNC(=N)N)C(=O)N[C@@H](CO)C(=O)N[C@@H](CO)C(=O)NCC(=O)N[C@H](CCCCN)C(=O)N[C@@H](CCCNC(=N)N)C(=O)N[C@@H](CCCNC(=N)N)C(=O)N[C@@H](CO)C(=O)N[C@@H](C)C(=O)N[C@@H](CC(=O)O)C(=O)N[C@H](C(=O)N[C@@H](Cc1ccccc1)C(=O)N[C@H](C(N)=O)[C@@H](C)CC)[C@@H](C)CC)C(C)C)[C@@H](C)O [Compound 74] (Palmitoyl-TVFRSSG[dK]RRSADIFI-NH2) |  |
| 57 |  | CCCCCCCCCCCCCCCC(=O)N[C@H](C(=O)N[C@H](C(=O)N[C@@H](Cc1ccccc1)C(=O)N[C@@H](CCCNC(=N)N)C(=O)N[C@@H](CO)C(=O)N[C@@H](CO)C(=O)N[C@@H](CCC(=O)O)C(=O)N[C@H](CCCCN)C(=O)NCC(=O)N[C@@H](CCCNC(=N)N)C(=O)N[C@@H](CO)C(=O)N[C@@H](C)C(=O)N[C@@H](CC(=O)O)C(=O)N[C@H](C(=O)N[C@@H](Cc1ccccc1)C(=O)N[C@H](C(N)=O)[C@@H](C)CC)[C@@H](C)CC)C(C)C)[C@@H](C)O [Compound 75] (Palmitoyl-TVFRSSE[dK]GRSADIFI-NH2) |  |
|  |  | TVFRSSEkPRSADIFI (TVFRSSE[dK]PRSADIFI; also: Pal-C(O)- tether, place not given here) [Compound 49] | % IA (@ 300 nM) [1]: 49% |
|  |  | TVFRSSEkRRSADFFI (TVFRSSE[dK]RRSADFFI; also: Pal-C(O)- tether, place not given here) [Compound 5] | % IA (@ 300 nM) [1]: 81% |

| Compound | percent intrinsic activity at 0.3 µM [1] [%] | Histimine (% vs. 48/40) [2] [%] | further results |
| --- | --- | --- | --- |
| CCCCCCCCCCCCCCCC(=O)N[C@H](C(=O)N[C@H](C(=O)N[C@@H](Cc1ccccc1)C(=O)N[C@@H](CCCNC(=N)N)C(=O)N[C@@H](CO)C(=O)N[C@@H](CO)C(=O)N[C@@H](CCC(=O)O)C(=O)N[C@H](CCCCN)C(=O)N[C@@H](Cc1ccccc1)C(=O)N[C@@H](CCCNC(=N)N)C(=O)N[C@@H](CO)C(=O)N[C@@H](C)C(=O)N[C@@H](CC(=O)O)C(=O)N[C@H](C(=O)N[C@@H](Cc1ccccc1)C(=O)N[C@H](C(N)=O)[C@@H](C)CC)[C@@H](C)CC)C(C)C)[C@@H](C)O [Compound 3] (Palmitoyl-TVFRSSE[dK]FRSADIFI-NH2; C-terminus assumed) | 71 | 29 | EC50 [1]: 243 nM; Ranking [1]: **** (EC50 101-500 nM and % histamine<35%) |
| CCCCCCCCCCCCCCCC(=O)N[C@H](C(=O)N[C@H](C(=O)N[C@@H](Cc1ccccc1)C(=O)N[C@@H](CCCNC(=N)N)C(=O)N[C@@H](CO)C(=O)N[C@@H](Cc1c[nH]cn1)C(=O)N[C@@H](CCC(=O)O)C(=O)N[C@H](CCCCN)C(=O)N[C@@H](CCCNC(=N)N)C(=O)N[C@@H](CCCNC(=N)N)C(=O)N[C@@H](CO)C(=O)N[C@@H](C)C(=O)N[C@@H](CC(=O)O)C(=O)N[C@H](C(=O)N[C@@H](Cc1ccccc1)C(=O)N[C@H](C(N)=O)[C@@H](C)CC)[C@@H](C)CC)C(C)C)[C@@H](C)O [Compound 11] (Palmitoyl-TVFRSHE[dK]RRSADIFI-NH2; C-terminus assumed) | 68 | 38 | EC50 [1]: 65.1 nM; Ranking [1]: *** (EC50<100 nM and % histamine>35%) |
